In patent publication US8071654B2, “Inhibitors of thromboxane formation and action” (priority 2000, dated 2011):
Each block holds one molecule with its values, some of them ahead of it.

Key:
human platelets = experiment: collagen-evoked aggregation of washed human platelets; type: cell-based; conditions: single dose 1 μg added 2 min prior to collagen (2 μg); 350×10^6 washed human platelets in 0.5 ml
Description: Venous blood was obtained from healthy human subjects who had not taken NSAID's for at least two weeks. Blood was drawn into plastic syringes containing ACD. […] The platelet rich plasma was transferred into fresh plastic tubes and centrifuged at 400×g for 5 min. […] A platelet count was made, which determined the volume of platelet suspension needed to make up 350×10^6 cells for each measurement. The aliquot was diluted with medium to make 0.5 ml/assay/cuvette. Appropriate calibration of the aggregometer (PAP-4C) for 0% and 100% transmission was carried out through the use of a sample of platelet suspension and cell-free medium (37).
(§1) 0.5 ml of platelet suspension was added to siliconized glass tubes (four at a time) and heated with magnetic stirring to 37° for 1 min in a platelet aggregometer (PAP-4C). Either vehicle alone (ethanol, 1 μl) or hepoxilin analog was then added, followed two min later by agonist (collagen: 2 μg; PGH2: 100 ng/0.5 ml; U46619: 10 ng/0.5 ml or I-BOP: 2 ng/0.5 ml). The response was recorded for the next 5 min. In experiments where analysis of TxB2 and HHT were to be made by HPLC, the platelet suspension at the end of the experiment was diluted with ethyl acetate, 100 ng of prostaglandin B1 was added as internal standard, and the mixture was acidified to pH 3 with 0.1 N HCl. After centrifugation, the organic layer was separated, washed twice with water to neutrality, and evaporated to dryness. Half of the sample was taken and was resuspended in 1 ml ethyl acetate containing 20 μg ADAM reagent, and was left in the dark for 2 h (38). The solvent was then evaporated and the residue was acetylated with a solution of pyridine/acetic anhydride (3/1, v/v) during 16 h at 23°. The reagents were evaporated to dryness and the residue was resuspended in acetonitrile/water for HPLC analysis. In experiments where the conversion of tritiated PGH2 was to be monitored, the procedure described above was repeated with tritiated PGH2 instead of unlabeled PGH2. After extraction of the sample as described above, the radiolabeled compounds were analyzed by TLC. Dose response curves for varying amounts of test compounds were generated and the data expressed as % inhibition of collagen-induced platelet aggregation. Each point was investigated 5 times and statistical analysis of the data was carried out using Macintosh Statview statistical software.

[1] = intra ocular pressure in rats, eye drops, TonoPen; type: in vivo, Brown Norway rats; conditions: one drop daily to left eye, after 10 days' treatment, vs untreated right eye
Description: Brown Norway rats (300 g) were purchased from Charles River (St. Constant, Que), and housed (two/cage) in an animal facility with free access to food and water. A light cycle of 12 h on and 12 h off was maintained. Animals were allowed to adjust for one week prior to treatment during which period they were handled daily to get them familiarized with the procedures.
Prior to treatment with test drugs, the rats' intra ocular pressures (IOP) were measured to establish baseline readings. One drop of Didocaine (0.5%, Dioptic Labs, Markham, Ont) was administered to each eye, and the pressure in each eye was measured with a TonoPen (Mentor XL, Innova Medical Ophthalmics, Toronto). The treatment protocol consisted of daily administration of one drop of one of the following substances to the left eye, the right eye being left untreated to act as a control. […] Following this, the animals were left without treatment for 2 weeks (wash-out), and then treatment was started again, the same animals receiving the same drugs. Results are calculated from at least 30 readings/test animal and presented as the mean±SEM (left eye vs right eye), with the exclusion of readings >50 and <10 which were considered spurious and artifactual readings.

TP receptor [2] = target: T1, TP receptor (Homo sapiens, UniProt P21731); experiment: platelet aggregation evoked by the TxA2 mimic U46619; type: cell-based; conditions: aspirin 20 μg
T1 construct: endogenous in cells; host or cells: washed human platelets
T1 sequence (P21731 1-343): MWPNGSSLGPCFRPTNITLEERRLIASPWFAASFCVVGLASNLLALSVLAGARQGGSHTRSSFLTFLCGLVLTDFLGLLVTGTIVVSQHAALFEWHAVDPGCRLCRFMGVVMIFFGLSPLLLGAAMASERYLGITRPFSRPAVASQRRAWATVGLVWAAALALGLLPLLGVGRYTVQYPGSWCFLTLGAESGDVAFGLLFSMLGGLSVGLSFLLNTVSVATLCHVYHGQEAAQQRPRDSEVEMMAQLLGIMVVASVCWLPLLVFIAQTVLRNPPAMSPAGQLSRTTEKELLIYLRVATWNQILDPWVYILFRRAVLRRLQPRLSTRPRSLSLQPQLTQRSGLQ
Description: (§2) Venous blood was obtained from healthy human subjects who had not taken NSAID's for at least two weeks. Blood was drawn into plastic syringes containing ACD. It was immediately centrifuged at 23° at 200×g for 15 min. The platelet rich plasma was transferred into fresh plastic tubes and centrifuged at 400×g for 5 min. The supernatant was discarded and the platelet sediment was resuspended in fresh medium containing NaCl (137 mM), KCl (1 mM), NaH2PO4, glucose (5.5 mM), HEPES (20 mM) and CaCl2 (1 mM) and allowed to stand at room temperature for 30 min. A platelet count was made, which determined the volume of platelet suspension needed to make up 350×10^6 cells for each measurement. The aliquot was diluted with medium to make 0.5 ml/assay/cuvette. Appropriate calibration of the aggregometer (PAP-4C) for 0% and 100% transmission was carried out through the use of a sample of platelet suspension and cell-free medium (37).
as §1

platelet TP receptor = target: T2, platelet TP receptor (Homo sapiens, UniProt P21731); experiment: binding of 125I-BOP to platelets; conditions: 10×10^6 cells/0.5 ml; read-out: IC50 for competition with 125I-BOP binding to platelets
T2 construct: endogenous in cells; host or cells: washed human platelets
T2 sequence (P21731 1-343): T1 sequence (P21731 1-343)
Description: Washed platelets were prepared as described above, except that the platelet suspension was made up at a concentration of 10×10^6 cells/0.5 ml. The binding assay involved the addition of radioligand (30,000 cpm ^125I-BOP) to all tubes in triplicate, and either various doses of unlabeled I-BOP (10^−9-10^−7 M), PBT-3 (10^−9-10^−7 M) or U46619 (10^−9-10^−7 M) in 1 μl ethanol. Additional tubes containing excess unlabeled I-BOP were included to assess the extent of non-specific binding.

TP receptor [3] = target: T1, TP receptor; experiment: platelet aggregation evoked by I-BOP; type: cell-based; conditions: 2 ng/0.5 ml, data not shown
Description: as §2, with “Appropriate calibration of the aggregometer (PAP-4C) for 0% and 100% transmission was carried out through the use of a sample of platelet suspension and cell-free medium (37).” left out
0.5 ml of platelet suspension was added to siliconized glass tubes (four at a time) and heated with magnetic stirring to 37° for 1 min in a platelet aggregometer (PAP-4C). […] The response was recorded for the next 5 min. […] In experiments where the conversion of tritiated PGH2 was to be monitored, the procedure described above was repeated with tritiated PGH2 instead of unlabeled PGH2. After extraction of the sample as described above, the radiolabeled compounds were analyzed by TLC. Dose response curves for varying amounts of test compounds were generated and the data expressed as % inhibition of collagen-induced platelet aggregation. […]

[4] = cited from earlier work

SMILES: CCCCC/C=C\CC1CC1/C=C/[C@@H](O)C/C=C\CCCC(=O)OC (stereo partly drawn) [PBT-1, 8(S)-hydroxy-11,12-cyclopropyl-eicosa-5Z,9E,14Z-trienoic acid methyl ester]
inhibition of collagen-evoked aggregation (human platelets): inhibited the collagen effect

SMILES: CCCCC/C=C\CC1CC1[C@H](O)/C=C\C/C=C\CCCC(=O)OC (stereo partly drawn) [PBT-4, 10(R)-hydroxy-11,12-cyclopropyl-eicosa-5Z,8Z,14Z-trienoic acid methyl ester]
inhibition of collagen-evoked aggregation (human platelets): inhibited the collagen effect

SMILES: CC(C)(C)NC[C@H](O)COc1cccc2c1CCCC2=O [O-bunolol, reference compound]
effect on intra ocular pressure (IOP) ([1]; 0.5%): non-significant rise

SMILES: CC(C)OC(=O)CCC/C=C\C[C@@H]1[C@@H](CC[C@@H](O)CCc2ccccc2)[C@H](O)C[C@@H]1O [latanoprost, reference compound]
effect on intra ocular pressure (IOP) ([1]; 0.005%): significant reduction in IOP

effect on U46619-evoked aggregation (TP receptor [2]): did not block
SMILES: CC(=O)Oc1ccccc1C(=O)O [aspirin, reference compound]

IC50 (platelet TP receptor): 4.1 nM
SMILES: CCCCCC(O)C=CC1C2CC(CO2)C1CC=CCCCC(=O)O (stereo not drawn) [U46619, 5-heptenoic acid, 7-[6-(3-hydroxy-1-octenyl)-2-oxabicyclo-[2,2,1]-hept-5yl]-[1R-[1α,4α,5β(z), 6α(1E,3S*)]-9,11-dideoxy-9α,11α-methanoepoxyprostaglandin F2α, reference compound]

SMILES: CCCCC/C=C\CC1CC1[C@@H](O)/C=C\C/C=C\CCCC(=O)N[C@H]1C(O)O[C@H](CO)[C@H](O)[C@@H]1O (stereo partly drawn) [PBT-30, 10(S)-hydroxy-11,12-cyclopropyl-eicosa-5Z, 8Z, 14Z-trienoic acid galactosamide]
effect on intra ocular pressure (IOP) ([1]; 0.005%): tended to reduce IOP but the effect did not reach statistical significance

aggregation caused by the agonist (TP receptor [3]): 70%
IC50 (platelet TP receptor): 0.5 nM
SMILES: O=C(O)CCC/C=C\C[C@@H]1[C@@H](/C=C/[C@H](O)COc2ccc(I)cc2)[C@H]2CC[C@@H]1O2 (relative stereo) [I-BOP, 5-heptenoic acid, 7-[3-[3-hydroxy-4-(4-iodophenoxy)-1-butenyl]-7-oxabicyclo [2.2.1]hept-2-yl]-,[15-[1α, 2α(Z), 3β(1E,3S*), 4α]], reference compound]

SMILES: CCCCC[C@H](O)/C=C/[C@H]1O[C@H]2C[C@H](O2)[C@@H]1C/C=C\CCCC(=O)O [thromboxane A2 (TxA2), thromboxane A2]
half life in the body [4]: 30 s

SMILES: CCCCC/C=C\CC1CC1/C=C/C(O)C/C=C\CCCC(=O)OC [PBT-2, 8(R)-hydroxy-11,12-cyclopropyl-eicosa-5Z,9E,14Z-trienoic acid methyl ester]
inhibition of collagen-evoked aggregation (human platelets): inhibited the collagen effect
